Results from patent US20250179083A1, “TRICYCLIC TRIAZOLO COMPOUNDS AS DGK INHIBITORS” (Incyte Corporation, priority 2023, published 2025).

Legend:
[1] = target: T1, DGKα (Homo sapiens, UniProt P23743); experiment: In vitro DGKα inhibition assay (ADP-Glo); assay type: biochemical; conditions: His-tagged human recombinant DGKα 0.1 nM, 50 μM ATP, 20 μM DLG, 90 minute incubation
T1 construct: His; purchased Signal Chem D21-10BH
Procedure: (§1) The DGKα and DGKζ biochemical reactions were performed using His-tagged human recombinant enzymes (Signal Chem, DGKα, #D21-10BH; DGKζ, #D30-10H)) and DLG (Dilauroyl-sn-glycerol) lipid substrate (Signal Chem, #D430-59). ADP-Glo assay was performed using ADP-Glo™ kinase Assay kit (Promega, #V9104). The reactions were carried out in assay buffer containing 40 mM Tris, pH 7.5, 0.1% CHAPS, 0.1% Prionex, 40 mM NaCl, 5 mM MgCl2, 1 mM CaCl2, and 1 mM DTT. DGKα reactions contained 0.1 nM DGKα, 50 μM ATP, and 20 μM DLG. And DGKζ reactions contained 0.4 nM DGKζ, 30 μM ATP, and 20 μM DLG.
(§2) Compounds were added with top concentration of 2 mM with 11 point, 3-fold dilution series. Enzyme solution (contains 2×DGK enzyme concentration in 1× assay buffer) was added to the plate in 2 μL/well volume, followed by 2 μL/well of substrate solution (contains 2× concentration of ATP and DLG substrate in 1× assay buffer). Plates were then centrifuged for 1 min at 1200 RPM and sealed or lidded. For 4 μL reaction volume, test compounds were therefore diluted 100× to final top concentration of 20 μM. After 90 minute incubation, reactions were quenched by addition of 2 μL/well Promega ADP-Glo Reagent, followed by centrifugation and lidding. After 60 min incubation, 2 μL/well Promega Kinase Detection Reagent was added, plates centrifuged, and incubated for 30 min. Plates were then read using Luminescence method on BMG PHERAstar FSX plate reader. Percent inhibition was calculated and IC50s were determined using 4-parameter fit in Genedata Screener. Labcyte Echo acoustic dispenser was used for compound addition, and Formulatrix Tempest liquid handler was used for all reagent dispenses.

[2] = target: T2, DGKζ (Homo sapiens, UniProt Q13574); experiment: In vitro DGKζ inhibition assay (ADP-Glo); assay type: biochemical; conditions: His-tagged human recombinant DGKζ 0.4 nM, 30 μM ATP, 20 μM DLG, 90 minute incubation
T2 construct: His; purchased Signal Chem D30-10H
Procedure: as §1, §2

T2 sequence (Q13574 whole entry): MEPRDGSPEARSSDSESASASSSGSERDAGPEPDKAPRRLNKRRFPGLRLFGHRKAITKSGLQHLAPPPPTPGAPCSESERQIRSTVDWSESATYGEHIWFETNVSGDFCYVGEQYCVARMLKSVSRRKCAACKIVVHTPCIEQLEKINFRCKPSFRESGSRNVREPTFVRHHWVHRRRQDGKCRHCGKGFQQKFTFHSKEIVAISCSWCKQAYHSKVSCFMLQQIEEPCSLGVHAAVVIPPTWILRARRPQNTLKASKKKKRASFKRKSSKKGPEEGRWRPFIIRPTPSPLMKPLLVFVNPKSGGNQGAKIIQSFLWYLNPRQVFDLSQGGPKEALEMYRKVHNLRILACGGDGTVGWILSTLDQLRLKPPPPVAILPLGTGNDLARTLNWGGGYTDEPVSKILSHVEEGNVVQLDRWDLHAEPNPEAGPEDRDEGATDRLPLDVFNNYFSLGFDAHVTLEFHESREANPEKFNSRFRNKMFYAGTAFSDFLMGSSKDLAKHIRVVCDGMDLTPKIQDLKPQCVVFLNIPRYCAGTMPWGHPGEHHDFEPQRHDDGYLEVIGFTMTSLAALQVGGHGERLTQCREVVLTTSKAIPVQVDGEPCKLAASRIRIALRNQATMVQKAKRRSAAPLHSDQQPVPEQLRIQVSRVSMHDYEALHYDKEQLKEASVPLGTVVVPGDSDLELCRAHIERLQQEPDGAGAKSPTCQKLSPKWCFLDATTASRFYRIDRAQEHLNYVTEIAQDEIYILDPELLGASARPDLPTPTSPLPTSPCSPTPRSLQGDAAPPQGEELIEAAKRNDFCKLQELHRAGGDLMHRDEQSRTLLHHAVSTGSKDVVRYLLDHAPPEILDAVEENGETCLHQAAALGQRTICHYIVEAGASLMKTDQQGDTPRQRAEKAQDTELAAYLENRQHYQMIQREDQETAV
T1 sequence (P23743 whole entry): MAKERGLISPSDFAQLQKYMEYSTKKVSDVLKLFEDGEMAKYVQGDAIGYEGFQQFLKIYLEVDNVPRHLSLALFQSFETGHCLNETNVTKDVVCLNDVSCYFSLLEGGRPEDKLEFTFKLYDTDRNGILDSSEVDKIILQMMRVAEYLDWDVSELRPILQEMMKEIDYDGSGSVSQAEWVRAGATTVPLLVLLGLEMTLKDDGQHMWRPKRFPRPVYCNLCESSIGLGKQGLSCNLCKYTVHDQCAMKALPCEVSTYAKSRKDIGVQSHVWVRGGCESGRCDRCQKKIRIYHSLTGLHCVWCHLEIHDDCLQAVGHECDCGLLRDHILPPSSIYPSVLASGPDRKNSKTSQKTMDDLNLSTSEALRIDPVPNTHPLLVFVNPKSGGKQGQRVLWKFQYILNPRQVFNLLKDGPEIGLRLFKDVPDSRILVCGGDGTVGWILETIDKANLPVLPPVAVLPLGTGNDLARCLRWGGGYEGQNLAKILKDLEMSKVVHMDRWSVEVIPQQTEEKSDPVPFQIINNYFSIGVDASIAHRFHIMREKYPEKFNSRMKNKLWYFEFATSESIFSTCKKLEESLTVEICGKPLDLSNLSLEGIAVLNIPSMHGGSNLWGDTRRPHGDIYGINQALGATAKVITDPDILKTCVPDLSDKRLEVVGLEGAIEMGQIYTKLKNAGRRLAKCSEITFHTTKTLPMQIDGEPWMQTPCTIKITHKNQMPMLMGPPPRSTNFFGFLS

Row | IC50 [1] [nM] | IC50 [2] [nM] | SMILES
1 | < 20 | 20 to 200 | C[C@@H]1CN(c2cc3nncn3c3c2ncn3C[C@@H]2CCCO2)[C@@H](C)CN1C(c1ccc(Cl)cc1)[C@@H]1CC1(F)F (single isomer, unassigned) [Example 50]
2 | < 20 | < 20 | C[C@@H]1CN(c2nc3nncn3c3c2ncn3CC2(O)CCCC2)[C@@H](C)CN1C(c1ccc(C(F)(F)F)cc1)C1CC(F)(F)C1 (stereo partly drawn) [Example 46, 1-((4-((2S,5R)-4-((3,3-Difluorocyclobutyl)(4-(trifluoromethyl)phenyl)methyl)-2,5-dimethylpiperazin-1-yl)-1H-[1,2,4]triazolo[3,4-b]purin-1-yl)methyl)cyclopentan-1-ol]
3 | < 20 | < 20 | C[C@@H]1CN(c2cc3nncn3c3c2ncn3C[C@@H]2CCCO2)[C@@H](C)CN1C(c1ccc(Cl)cc1)C1CC(F)(F)C1 (single isomer, unassigned) [Example 61]
4 | 20 to 200 | < 20 | CC(c1ccc(Cl)c(F)c1)N1C[C@H](C)N(c2nc3nncn3c3c2ncn3C[C@@H]2CCCO2)C[C@H]1C (stereo partly drawn) [Example 88, 4-((2S,5R)-4-(1-(4-Chloro-3-fluorophenyl)ethyl)-2,5-dimethylpiperazin-1-yl)-1-(((S)-tetrahydrofuran-2-yl)methyl)-1H-[1,2,4]triazolo[3,4-b]purine]
5 | < 20 | < 20 | CC[C@H](c1ccc(Cl)cc1)N1C[C@H](C)N(c2nc3nncn3c3c2ncn3C[C@@H]2CCCO2)C[C@H]1C [Example 58, 4-((2S,5R)-4-((R)-1-(4-chlorophenyl)propyl)-2,5-dimethylpiperazin-1-yl)-1-(((S)-tetrahydrofuran-2-yl)methyl)-1H-[1,2,4]triazolo[3,4-b]purine]
6 | < 20 | < 20 | COc1ccc(C(C(C)C)N2C[C@H](C)N(c3nc4nncn4c4c3nc(C)n4C[C@@H]3CCCO3)C[C@H]2C)cc1F (stereo partly drawn) [Example 24, 4-((2S,5R)-4-(1-(3-fluoro-4-methoxyphenyl)-2-methylpropyl)-2,5-dimethylpiperazin-1-yl)-2-methyl-1-(((S)-tetrahydrofuran-2-yl)methyl)-1H-[1,2,4]triazolo[3,4-b]purine]
7 | < 20 | < 20 | CC(C)CC(c1ccc(Cl)cc1)N1C[C@H](C)N(c2nc3nncn3c3c2ncn3C[C@@H]2CCCO2)C[C@H]1C (single isomer, unassigned) [Example 9]
8 | < 20 | < 20 | CC[C@@H]1CN(c2cc3nncn3c3c2nc(C)n3C[C@@H]2CCCO2)[C@@H](C)CN1C(c1ccc(Cl)cc1)C1CC(F)(F)C1 (single isomer, unassigned) [Example 52]
9 | < 20 | < 20 | Cc1nc2c(N3C[C@@H](C)N(C(c4ccc(C(F)(F)F)cc4)C4CC(F)(F)C4)C[C@@H]3C)cc3nncn3c2n1C[C@@H]1CCCO1 (single isomer, unassigned) [Example 49]
10 | < 20 | < 20 | Cc1nc2c(N3C[C@@H](C)N([C@@H](c4ccc(Br)cc4F)C(C)C)C[C@@H]3C)nc3nncn3c2n1C[C@@H]1CCCO1 [Example 27, 4-((2S,5R)-4-((R)-1-(4-bromo-2-fluorophenyl)-2-methylpropyl)-2,5-dimethylpiperazin-1-yl)-2-methyl-1-(((S)-tetrahydrofuran-2-yl)methyl)-1H-[1,2,4]triazolo[3,4-b]purine]
11 | < 20 | < 20 | Cc1nc2c(N3C[C@@H](C)N(C(c4ccc(Cl)cc4)[C@@H]4CC4(F)F)C[C@@H]3C)nc3nncn3c2n1C[C@@H]1CCCO1 (single isomer, unassigned) [Example 8]
12 | < 20 | < 20 | CC(C)CC(c1ccc(Cl)c(F)c1)N1C[C@H](C)N(c2nc3nncn3c3c2ncn3C[C@@H]2CCCO2)C[C@H]1C (single isomer, unassigned) [Example 15]
13 | < 20 | < 20 | C[C@@H]1CN(c2nc3nncn3c3c2ncn3C[C@@H]2CCCO2)[C@@H](C)CN1Cc1ccc(C(F)(F)F)cc1F [Example 38, 4-((2S,5R)-4-(2-Fluoro-4-(trifluoromethyl)benzyl)-2,5-dimethylpiperazin-1-yl)-1-(((S)-tetrahydrofuran-2-yl)methyl)-1H-[1,2,4]triazolo[3,4-b]purine]

Further lines, the compound ahead of its results:

Row | SMILES | IC50 [1] [nM] | IC50 [2] [nM]
14 | C[C@@H]1CN(c2nc3nncn3c3c2ncn3C[C@@H]2CCCO2)[C@@H](C)CN1[C@@H](c1ccc(Cl)cc1)c1ccc(Cl)cn1 (single isomer, unassigned) [Example 21] | < 20 | < 20
15 | C[C@@H]1CN(c2nc3nncn3c3c2ncn3C[C@@H]2CCCO2)[C@@H](C)CN1C(c1ccc(Cl)cc1)[C@H]1CC1(F)F (single isomer, unassigned) [Example 7] | < 20 | < 20
16 | Cc1nc2c(N3C[C@@H](C)N([C@H](c4ccc(Cl)cc4)[C@H]4CC4(F)F)C[C@@H]3C)nc3nncn3c2n1C[C@@H]1CCCO1 (single isomer, unassigned) [Example 55] | < 20 | < 20
17 | Cc1nc2c(N3C[C@@H](C)N(C(c4ccc(C(F)(F)F)cc4F)C4CC(F)(F)C4)C[C@@H]3C)nc3nncn3c2n1C[C@@H]1CCCO1 (stereo partly drawn) [Example 4, 4-((2S,5R)-4-((3,3-Difluorocyclobutyl)(2-fluoro-4-(trifluoromethyl)phenyl)methyl)-2,5-dimethylpiperazin-1-yl)-2-methyl-1-(((S)-tetrahydrofuran-2-yl)methyl)-1H-[1,2,4]triazolo[3,4-b]purine] | < 20 | < 20
18 | C[C@@H]1CN(c2nc3nncn3c3c2ncn3C[C@@H]2CCCO2)[C@@H](C)CN1C(C[C@@H](C)C(F)(F)F)c1ccc(Cl)c(F)c1 (single isomer, unassigned) [Example 16] | < 20 | < 20
19 | CC[C@H](c1ccc(C(F)(F)F)cc1)N1C[C@H](C)N(c2nc3nncn3c3c2nc(C)n3C[C@@H]2CCCO2)C[C@H]1C [Example 90, 4-((2S,5R)-2,5-dimethyl-4-((R)-1-(4-(trifluoromethyl)phenyl)propyl)piperazin-1-yl)-2-methyl-1-(((S)-tetrahydrofuran-2-yl)methyl)-1H-[1,2,4]triazolo[3,4-b]purine] | < 20 | < 20
20 | Cc1nc2c(N3C[C@@H](C)N(Cc4ccc(C(F)(F)F)cc4F)C[C@@H]3C)nc3nncn3c2n1C[C@@H]1CCCO1 [Example 37, 4-((2S,5R)-4-(2-Fluoro-4-(trifluoromethyl)benzyl)-2,5-dimethylpiperazin-1-yl)-2-methyl-1-(((S)-tetrahydrofuran-2-yl)methyl)-1H-[1,2,4]triazolo[3,4-b]purine] | < 20 | < 20
21 | C[C@@H]1CN(c2nc3nncn3c3c2ncn3C[C@@H]2CCCO2)[C@@H](C)CN1Cc1ccc(C(F)(F)F)cc1 [Example 40, 4-((2S,5R)-2,5-Dimethyl-4-(4-(trifluoromethyl)benzyl)piperazin-1-yl)-1-(((S)-tetrahydrofuran-2-yl)methyl)-1H-[1,2,4]triazolo[3,4-b]purine] | < 20 | < 20
22 | C[C@@H]1CN(c2nc3nncn3c3c2ncn3C[C@@H]2CCCO2)[C@@H](C)CN1C(c1ccc(Cl)cc1)C1CC(F)(F)C1 (stereo partly drawn) [Example 32, 4-((2S,5R)-4-((4-Chlorophenyl)(3,3-difluorocyclobutyl)methyl)-2,5-dimethylpiperazin-1-yl)-1-(((S)-tetrahydrofuran-2-yl)methyl)-1H-[1,2,4]triazolo[3,4-b]purine] | < 20 | < 20
23 | Cc1nc2c(N3C[C@@H](C)N([C@H](c4ccc(Cl)cc4)C(C)C)C[C@@H]3C)cc3nncn3c2n1C[C@@H]1CCCO1 [Example 65, 4-((2S,5R)-4-((S)-1-(4-Chlorophenyl)-2-methylpropyl)-2,5-dimethylpiperazin-1-yl)-2-methyl-1-(((S)-tetrahydrofuran-2-yl)methyl)-1H-imidazo[4,5-e][1,2,4]triazolo[4,3-a]pyridine] | < 20 | < 20
24 | C[C@@H]1CN(c2nc3nncn3c3c2ncn3C[C@@H]2CCCO2)[C@@H](C)CN1[C@H](c1ccc(Cl)cc1)c1ccc(Cl)cn1 (single isomer, unassigned) [Example 22] | < 20 | < 20
25 | C[C@@H]1CN(c2nc3nncn3c3c2ncn3C[C@@H]2CCCO2)[C@@H](C)CN1Cc1ccc(Cl)cc1 [Example 47, 4-((2S,5R)-4-(4-Chlorobenzyl)-2,5-dimethylpiperazin-1-yl)-1-(((S)-tetrahydrofuran-2-yl)methyl)-1H-[1,2,4]triazolo[3,4-b]purine] | < 20 | < 20
26 | Cc1nc2c(N3C[C@@H](C)N(Cc4ccc(Cl)c(F)c4)C[C@@H]3C)nc3nncn3c2n1C[C@@H]1CCCO1 [Example 76, 4-((2S,5R)-4-(4-Chloro-3-fluorobenzyl)-2,5-dimethylpiperazin-1-yl)-2-methyl-1-(((S)-tetrahydrofuran-2-yl)methyl)-1H-[1,2,4]triazolo[3,4-b]purine] | < 20 | < 20
